Measured values from US20210401809A1, “PHARMACEUTICAL COMPOUNDS” (Sareum Limited, priority 2016, published 2021).

Columns and labels:
[1] = test system: TYK2 dependent cell lines (T-ALL cells); settings: Sanda et al.; cited from earlier work
[2] = test system: MOLT-4 cells (TYK2-dependent T-ALL); assay: Cell proliferation assay (ATPlite, 7 days); type: cell-based; settings: Homo sapiens, MOLT-4, 168 h
Procedure: (§1) Jurkat, MOLT-4, CCRF-CEM and CCRF-HSB-2 cells are all TYK2-dependent T-ALL cells. Loucy cells are TYK2-independent T-ALL cell lines. Dexamethasone, Etoposide and Paclitaxel were used as positive controls. Compound effects were studied 7 days after compound addition […] Luminescent product was detected using a BMG FLUOstar plate reader. • The data were analysed using a 4-parameter logistic equation in GraphPad Prism.

[3] = test system: Loucy cells (TYK2-independent T-ALL); assay: Cell proliferation assay (ATPlite, 7 days); type: cell-based; settings: 168 h
Procedure: as §1

[4] = test system: CCRF-CEM cells (TYK2-dependent T-ALL); assay: Cell proliferation assay (ATPlite, 7 days); type: cell-based; settings: Homo sapiens, 168 h
Procedure: as §1

[5] = test system: Jurkat cells (TYK2-dependent T-ALL); assay: Cell proliferation assay (ATPlite, 7 days); type: cell-based; settings: Homo sapiens, 168 h
Procedure: as §1

[6] = test system: CCRF-HSB-2 cells (TYK2-dependent T-ALL); assay: Cell proliferation assay (ATPlite, 7 days); type: cell-based; settings: Homo sapiens, CCRF-HSB-2, 168 h
Procedure: as §1

TYK2 kinase = biological target: T1, TYK2 kinase (Homo sapiens, UniProt P29597); assay: In vitro enzyme inhibition, 33P-ATP filter kinase assay (Reaction Biology); type: biochemical
T1 construct: 833-1187; GST (N); purchased Reaction Biology Corp. (contract assay); host or cells: Baculovirus in Sf21 insect cells
T1 sequence (P29597 833-1187): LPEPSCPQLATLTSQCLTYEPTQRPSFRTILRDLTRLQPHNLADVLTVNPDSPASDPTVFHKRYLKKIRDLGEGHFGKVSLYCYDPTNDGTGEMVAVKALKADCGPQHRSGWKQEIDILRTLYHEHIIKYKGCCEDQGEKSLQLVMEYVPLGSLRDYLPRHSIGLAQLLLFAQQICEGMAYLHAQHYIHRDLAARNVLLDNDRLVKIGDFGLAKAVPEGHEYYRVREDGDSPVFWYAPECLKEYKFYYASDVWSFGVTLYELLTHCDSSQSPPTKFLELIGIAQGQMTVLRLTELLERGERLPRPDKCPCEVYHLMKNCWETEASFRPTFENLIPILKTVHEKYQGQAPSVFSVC
Procedure: (§2) Compounds of the invention were assayed for their ability to inhibit TYK2 kinase and other JAK kinases.
(§3) Substrates and kinases used in the assays are identified in Table 2 below.
(§4) JAK3tide=[Ac-[…]-NH2]

JAK3 = biological target: T2, JAK3 (Homo sapiens, UniProt P52333); assay: as above; type: biochemical
T2 construct: 781-1124; GST (N); purchased Reaction Biology Corp. (contract assay); host or cells: Baculovirus in Sf21 insect cells
T2 sequence (P52333 781-1124): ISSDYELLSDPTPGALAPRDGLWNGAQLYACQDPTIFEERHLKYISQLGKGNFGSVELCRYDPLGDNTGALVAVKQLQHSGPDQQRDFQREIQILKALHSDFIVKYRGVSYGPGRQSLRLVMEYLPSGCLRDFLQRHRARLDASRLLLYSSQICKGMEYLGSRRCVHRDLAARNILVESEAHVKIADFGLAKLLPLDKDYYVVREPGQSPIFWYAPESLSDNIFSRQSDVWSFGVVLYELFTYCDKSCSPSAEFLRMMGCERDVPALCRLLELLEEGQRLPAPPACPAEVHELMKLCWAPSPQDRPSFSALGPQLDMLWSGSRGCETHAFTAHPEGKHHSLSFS
Procedure: as §2, §3, §4

JAK1 = biological target: T3, JAK1 (Homo sapiens, UniProt P23458); assay: as above; type: biochemical
T3 construct: 866-1154; GST (N); purchased Reaction Biology Corp. (contract assay); host or cells: Baculovirus in Sf21 insect cells
T3 sequence (P23458 866-1154): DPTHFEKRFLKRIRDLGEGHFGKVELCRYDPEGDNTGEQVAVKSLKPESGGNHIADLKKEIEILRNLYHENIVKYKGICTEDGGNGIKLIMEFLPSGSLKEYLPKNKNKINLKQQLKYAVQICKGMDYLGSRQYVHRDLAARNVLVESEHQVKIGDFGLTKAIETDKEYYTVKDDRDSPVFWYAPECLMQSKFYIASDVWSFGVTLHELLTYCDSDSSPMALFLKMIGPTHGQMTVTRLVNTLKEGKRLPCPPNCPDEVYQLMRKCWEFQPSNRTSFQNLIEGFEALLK
Procedure: as §2, §3, §4

JAK2 = biological target: T4, JAK2 (Homo sapiens, UniProt O60674); assay: as above; type: biochemical
T4 construct: 809-1132; GST (N); '+g'; purchased Reaction Biology Corp. (contract assay); host or cells: Baculovirus in Sf21 insect cells
T4 sequence (O60674 809-1132): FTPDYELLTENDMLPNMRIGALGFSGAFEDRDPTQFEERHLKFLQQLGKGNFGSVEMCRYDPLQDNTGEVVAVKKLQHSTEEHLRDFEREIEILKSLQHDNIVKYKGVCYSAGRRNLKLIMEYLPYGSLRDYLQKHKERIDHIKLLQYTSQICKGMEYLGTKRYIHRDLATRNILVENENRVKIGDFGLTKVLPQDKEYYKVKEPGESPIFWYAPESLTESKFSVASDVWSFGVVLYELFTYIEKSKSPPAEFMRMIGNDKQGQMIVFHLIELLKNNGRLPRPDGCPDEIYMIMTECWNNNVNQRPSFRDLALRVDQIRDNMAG
Procedure: as §2, §3

Compound | IC50 [6] | IC50 (TYK2 kinase) | IC50 (JAK3) | IC50 (JAK1) | IC50 (JAK2) | also measured
C[C@@H]1CCN(C(=O)CC#N)C[C@@H]1N(C)c1ncnc2[nH]ccc12 [CP-690550] |  |  |  |  |  | effect against the T-ALL cells [1]: ineffective
NC(=O)c1nc(-c2c(F)cccc2Cl)oc1Nc1ccc(C(=O)N[C@H]2CCCNC2)cc1 [Compound 23, (S) 2-(2-chloro-6-fluoro-phenyl)-5-[4-(piperidin-3-ylcarbamoyl)-phenylamino]-oxazole-4-carboxylic acid amide] |  | 1.89 nM | 240 nM | 63.3 nM | 61.9 nM | 
NC(=O)c1nc(-c2c(F)cccc2Cl)oc1Nc1ccc(C(=O)N[C@@H]2CCCNC2)cc1 [Compound 24, (R) 2-(2-chloro-6-fluoro-phenyl)-5-[4-(piperidin-3-ylcarbamoyl)-phenylamino]-oxazole-4-carboxylic acid amide] |  | 5.11 nM | 167 nM | 157 nM | 125 nM | 
CN1CCC(NC(=O)c2ccc(Nc3oc(-c4c(F)cccc4Cl)nc3C(N)=O)cc2)CC1 [Compound 26, 2-(2-chloro-6-fluoro-phenyl)-5-[4-(1-methyl-piperidin-4-ylcarbamoyl)-phenylamino]-oxazole-4-carboxylic acid amide] |  | 2.98 nM | 132 nM | 100 nM | 87.8 nM | 
CCS(=O)(=O)c1ccc(Nc2oc(-c3c(F)cccc3F)nc2C(N)=O)cc1 [Compound 31, 2-(2,6-difluoro-phenyl)-5-(4-ethanesulfonyl-phenylamino)-oxazole-4-carboxylic acid amide] |  | 4.41 nM | 390 nM | 222 nM | 213 nM | 
CC(C)S(=O)(=O)c1ccc(Nc2oc(-c3c(F)cccc3F)nc2C(N)=O)cc1 [Compound 33] |  | 5.47 nM | 516 nM | 135 nM | 153 nM | 
C[C@@H]1C[C@H]2[C@@H]3CCC4=CC(=O)C=C[C@]4(C)[C@@]3(F)[C@@H](O)C[C@]2(C)[C@@]1(O)C(=O)CO [Dexamethasone, reference compound] | 49 µM |  |  |  |  | inhibition at 10 µM ([2]; 10 μM, read-out: Cell proliferation inh. @ 10 μM, MOLT-4): 21%; inhibition at 10 µM ([3]; 10 μM, read-out: Cell proliferation inh. @ 10 μM, Loucy): 25%; IC50 [4]: 59 µM; inhibition at 10 µM ([5]; 10 μM, read-out: Cell proliferation inh. @ 10 μM, Jurkat): 5%
COc1cc([C@@H]2c3cc4c(cc3[C@@H](O[C@@H]3O[C@@H]5CO[C@@H](C)O[C@H]5[C@H](O)[C@H]3O)[C@H]3COC(=O)[C@H]23)OCO4)cc(OC)c1O [Etoposide, reference compound] | 4.7 µM |  |  |  |  | IC50 [2]: 7.7 µM; IC50 [3]: 33 µM; IC50 [4]: 17 µM; IC50 [5]: 94 µM
CC(=O)O[C@H]1C(=O)[C@@]2(C)[C@H]([C@H](OC(=O)c3ccccc3)[C@]3(O)C[C@H](OC(=O)[C@H](O)[C@@H](NC(=O)c4ccccc4)c4ccccc4)C(C)=C1C3(C)C)[C@]1(OC(C)=O)CO[C@@H]1C[C@@H]2O [Paclitaxel, reference compound] | 1.3 µM |  |  |  |  | IC50 [2]: 0.66 µM; IC50 [3]: 2.2 µM; IC50 [4]: 4.4 µM; IC50 [5]: 1.8 µM

Now from value to molecule, other results behind:

IC50 [6] | IC50 (TYK2 kinase) | IC50 (JAK3) | IC50 (JAK1) | IC50 (JAK2) | Compound | also measured
17 µM |  |  |  |  | CS(=O)(=O)c1ccc(Nc2oc(-c3c(Cl)cccc3Cl)nc2C(N)=O)cc1 [Compound 19, 2-(2,6-dichloro-phenyl)-5-(4-methanesulfonyl-phenylamino)-oxazole-4-carboxylic acid amide] | IC50 [2]: 12 µM; IC50 [3]: 20 µM; inhibition at 30 µM ([4]; 30 μM, read-out: Cell proliferation inh. @ 30 μM, CCRF-CEM): 34%; inhibition at 30 µM ([5]; 30 μM, read-out: Cell proliferation inh. @ 30 μM, Jurkat): 8%
2.8 µM |  |  |  |  | CS(=O)(=O)c1ccc(Nc2oc(-c3c(F)cccc3Cl)nc2C(N)=O)cc1 [Compound 20, 2-(2-chloro-6-fluoro-phenyl)-5-(4-methanesulfonyl-phenylamino)-oxazole-4-carboxylic acid amide] | IC50 [2]: 3.1 µM; IC50 [3]: 3.9 µM; IC50 [4]: 8.9 µM; IC50 [5]: 2.1 µM
 | 1.21 nM | 233 nM | 72.2 nM | 93.3 nM | NC(=O)c1nc(-c2c(Cl)cccc2Cl)oc1Nc1ccc(C(=O)N[C@H]2CCCNC2)cc1 [Compound 27, (S) 2-(2,6-dichloro-phenyl)-5-[4-(piperidin-3-ylcarbamoyl)-phenylamino]-oxazole-4-carboxylic acid amide] | 
 | 1.77 nM | 194 nM | 108 nM | 122 nM | NC(=O)c1nc(-c2c(Cl)cccc2Cl)oc1Nc1ccc(C(=O)N[C@@H]2CCCNC2)cc1 [Compound 28, (R) 2-(2,6-dichloro-phenyl)-5-[4-(piperidin-3-ylcarbamoyl)-phenylamino]-oxazole-4-carboxylic acid amide] | 
 | 1.52 nM | 164 nM | 83.4 nM | 106 nM | CN1CCC(NC(=O)c2ccc(Nc3oc(-c4c(Cl)cccc4Cl)nc3C(N)=O)cc2)CC1 [Compound 30, 2-(2,6-dichloro-phenyl)-5-[4-(1-methyl-piperidin-4-ylcarbamoyl)-phenylamino]-oxazole-4-carboxylic acid amide] | 
